Results taken from US20160279252A1, “COMPOSITIONS FOR INDUCING IMMUNE TOLERANCE TO COAGULATION FACTOR PROTEINS” (BAYER HEALTHCARE LLC, priority 2013, published 2016).

Key:
Siglec-G = biological target: T1, Siglec-G (Mus musculus, UniProt Q80ZE3); settings: cited from earlier work
T1 sequence (Q80ZE3 18-688): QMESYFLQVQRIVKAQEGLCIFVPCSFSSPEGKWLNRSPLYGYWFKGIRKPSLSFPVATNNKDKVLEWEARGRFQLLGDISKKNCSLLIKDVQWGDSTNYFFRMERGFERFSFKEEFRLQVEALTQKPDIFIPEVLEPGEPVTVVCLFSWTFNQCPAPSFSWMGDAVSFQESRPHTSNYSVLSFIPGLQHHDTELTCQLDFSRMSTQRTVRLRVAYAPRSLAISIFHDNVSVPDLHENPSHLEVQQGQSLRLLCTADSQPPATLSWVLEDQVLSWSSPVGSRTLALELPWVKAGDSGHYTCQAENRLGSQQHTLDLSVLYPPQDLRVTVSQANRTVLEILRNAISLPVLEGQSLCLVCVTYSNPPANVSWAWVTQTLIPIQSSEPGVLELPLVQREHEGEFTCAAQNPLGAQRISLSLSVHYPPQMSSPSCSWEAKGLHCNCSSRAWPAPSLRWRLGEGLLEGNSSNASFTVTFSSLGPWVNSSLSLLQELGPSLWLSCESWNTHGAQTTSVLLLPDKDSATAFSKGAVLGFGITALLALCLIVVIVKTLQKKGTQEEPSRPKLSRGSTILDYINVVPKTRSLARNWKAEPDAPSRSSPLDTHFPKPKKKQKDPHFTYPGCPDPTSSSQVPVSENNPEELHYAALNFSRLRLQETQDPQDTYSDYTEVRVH

C57BL/6J mice = assay: Tolerization of C57BL/6J mice to HEL (anti-HEL titers); format: in vivo, mouse; settings: for effect of ligand amount on liposomes on antibody production: HEL liposomes with varying ligand, day 44 after two challenges
Experimental: Immunization and Blood Collection: Whole blood (50 μL) was collected from mice via a retro-orbital bleed using heparinized capillary tubes (Fisher). Blood was centrifuged (17,000 rcf, 1 min) to collect the serum. Serum was either used immediately for ELISAs or stored at −20° C. […] Liposomes and cells were delivered via the lateral tail vein in a volume of 200 μL. For studies involving a challenge with soluble (non-liposomal) antigen, mice were injected with 200 μg of HEL dissolved in HBSS and delivered intraperitoneally or 1 μg of FVIII delivered intravenously.
ELISAs: Maxisorp plates (96-well; Thermo Fisher) were coated with 50 μL/well of the relevant protein at a concentration of between 10-100 μg/mL in PBS and left overnight at 4° C. […] The following day, the plates were washed twice in TBS-T (Tris-buffered saline blocked containing 0.1% Tween 20) and blocked for 1 hr at RT with 100 μL of assay diluent (TBS-T with 1% BSA). Washing of the plates was accomplished by submerging the entire plate into a basin of wash buffer the appropriate number of times. Serum was initially diluted between 20-10,000-fold and diluted in 2-3 fold serial dilutions eight times on the ELISA plate. Plates were incubated with serum (50 μL/well) for 1 hr at 37° C. after which the plates were washed four times in TBS-T. HRP-conjugated secondary antibodies (Santa Cruz Biotechnologies) were diluted 2000-fold in assay diluent and 50 μL was added to each well. After incubation for 1 hr at 37° C., the plates were washed five times in TBS-T. To develop the plate, 75 μL/well of TMB substrate (Thermo Fisher) was added. The plate was incubated at RT for 15 minutes and then 75 μL/well of 2N H2504 was added to quench the reaction. Plates were read at 450 nm using a spectrophotometer (Molecular Devices). The titer was defined as the endpoint titer, which was the dilution of serum that produced an absorbance 2-fold above background.
Liposomes: All liposomes were composed of a 60:35:5 molar ratio of distearoyl phosphatidylcholine (DSPC; Avanti Polar Lipids), cholesterol (Sigma), and pegylated lipids. […]

murine CD22 = biological target: T2, murine CD22 (Mus musculus, UniProt P35329); settings: vs NeuGcα2-6Galβ1-4GlcNAc; cited from earlier work
T2 sequence (P35329 22-868): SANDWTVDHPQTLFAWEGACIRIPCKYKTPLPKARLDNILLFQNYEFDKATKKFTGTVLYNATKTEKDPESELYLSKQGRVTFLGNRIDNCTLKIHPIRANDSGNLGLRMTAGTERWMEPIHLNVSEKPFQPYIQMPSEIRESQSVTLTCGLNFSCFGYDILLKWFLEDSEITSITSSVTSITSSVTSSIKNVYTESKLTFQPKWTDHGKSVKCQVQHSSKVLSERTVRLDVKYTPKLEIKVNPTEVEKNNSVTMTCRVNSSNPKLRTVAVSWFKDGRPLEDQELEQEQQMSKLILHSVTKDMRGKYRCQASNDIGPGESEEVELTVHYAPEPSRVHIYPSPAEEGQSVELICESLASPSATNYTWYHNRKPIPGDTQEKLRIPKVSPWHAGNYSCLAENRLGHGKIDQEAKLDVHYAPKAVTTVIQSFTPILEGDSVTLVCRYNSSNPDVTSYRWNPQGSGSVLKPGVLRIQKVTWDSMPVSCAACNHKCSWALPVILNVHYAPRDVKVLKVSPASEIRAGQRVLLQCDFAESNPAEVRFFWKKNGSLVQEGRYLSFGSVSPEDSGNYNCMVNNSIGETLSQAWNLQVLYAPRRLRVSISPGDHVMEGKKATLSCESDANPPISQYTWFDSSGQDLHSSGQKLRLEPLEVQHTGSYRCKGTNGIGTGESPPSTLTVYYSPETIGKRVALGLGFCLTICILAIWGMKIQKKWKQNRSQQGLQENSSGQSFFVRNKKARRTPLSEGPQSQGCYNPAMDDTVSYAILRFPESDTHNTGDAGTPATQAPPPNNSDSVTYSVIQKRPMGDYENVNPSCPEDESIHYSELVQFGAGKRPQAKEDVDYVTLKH

human CD22 = human CD22 (Homo sapiens, UniProt P20273); settings: cited from earlier work
FVIII deficient plasma = assay: Coagulation assay (one-stage aPTT clotting FVIII:C); format: biochemical; settings: PEGylated with PEGs 6 kD to 64 kD, assayed without purification
Experimental: COAGULATION ASSAY. The clotting FVIII:C test method is a one-stage assay based upon the activated partial thromboplastin time (aPTT). FVIII acts as a cofactor in the presence of Factor IXa, calcium, and phospholipid in the enzymatic conversion of Factor X to Xa. In this assay, the diluted test samples are incubated at 37° C. with a mixture of FVIII deficient plasma substrate and aPTT reagent. Calcium chloride is added to the incubated mixture and clotting is initiated. An inverse relationship exists between the time (seconds) it takes for a clot to form and logarithm of the concentration of FVIII:C. Activity levels for unknown samples are interpolated by comparing the clotting times of various dilutions of test material with a curve constructed from a series of dilutions of standard material of known activity and are reported in International Units per mL (IU/mL).
EFFECT OF PEG SIZE ON ACTIVITY. To test whether PEG sizes have an effect on both coagulation and chromogenic activities of FVIII upon PEGylation, purified full-length FVIII, PEG2, PEG6, and PEG14 were reduced by TCEP followed by reductant removal and reaction with a buffer control or PEGs ranging from 6 kD to 64 kD. The resulting PEGylated FVIII was directly assayed without removal of excess PEG or unPEGylated FVIII.

human CD22, sequence (P20273 20-847): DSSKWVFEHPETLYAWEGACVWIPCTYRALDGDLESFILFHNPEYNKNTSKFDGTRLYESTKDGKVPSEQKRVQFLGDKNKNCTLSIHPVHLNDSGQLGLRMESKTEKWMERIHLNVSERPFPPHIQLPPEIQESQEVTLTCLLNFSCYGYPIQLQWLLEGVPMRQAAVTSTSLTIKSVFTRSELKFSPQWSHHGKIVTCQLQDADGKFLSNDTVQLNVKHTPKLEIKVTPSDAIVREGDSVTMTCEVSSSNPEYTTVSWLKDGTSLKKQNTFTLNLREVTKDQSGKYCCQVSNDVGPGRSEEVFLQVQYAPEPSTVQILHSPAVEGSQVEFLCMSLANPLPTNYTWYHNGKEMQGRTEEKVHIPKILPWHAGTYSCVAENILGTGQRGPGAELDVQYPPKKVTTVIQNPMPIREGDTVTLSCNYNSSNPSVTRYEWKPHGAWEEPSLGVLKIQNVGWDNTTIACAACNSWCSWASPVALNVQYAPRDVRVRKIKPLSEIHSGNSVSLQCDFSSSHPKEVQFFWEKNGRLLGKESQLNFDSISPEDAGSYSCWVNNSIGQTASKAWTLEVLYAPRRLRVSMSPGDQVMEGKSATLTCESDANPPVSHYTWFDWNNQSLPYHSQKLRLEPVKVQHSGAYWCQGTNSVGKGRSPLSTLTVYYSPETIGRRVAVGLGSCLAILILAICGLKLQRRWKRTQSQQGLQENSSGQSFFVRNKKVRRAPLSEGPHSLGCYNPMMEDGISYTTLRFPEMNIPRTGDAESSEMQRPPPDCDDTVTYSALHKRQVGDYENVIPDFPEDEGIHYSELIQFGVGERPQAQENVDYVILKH

Molecule: 9-N-biphenylacetyl-NeuGcα2-6Galβ1-4GlcNAc [^BPANeuGc]
- cross-reactivity with Siglec-G (Siglec-G): only a small degree of cross-reactivity
- effect of ligand amount on liposomes on antibody production (C57BL/6J mice): dose-dependent effect on antibody production
- difference in EC50 between the two ligands (C57BL/6J mice; ^BPANeuGc vs NeuGc on tolerogenic HEL liposomes): two orders of magnitude difference
- affinity for murine CD22 relative to natural ligand (murine CD22): 200 fold

Molecule: 9-N-biphenylcarboxyl-NeuAca2-6Galβ3-4GlcNAc [^BPCNeuAc]
- affinity for human CD22 (human CD22): high affinity

Molecule: CC(=O)NC1C(O)OC(CO)C(OC2OC(COC3(C(=O)O)CC(O)C(NC(=O)CO)C(C(O)C(O)CO)O3)C(O)C(O)C2O)C1O (stereo not shown) [NeuGc, NeuGcα2-6Galβ1-4GlcNAc]
- effect of ligand amount on liposomes on antibody production (C57BL/6J mice): dose-dependent effect on antibody production

Molecule: PEG6
- coagulation activity upon PEGylation (FVIII deficient plasma): dramatic losses of coagulation activity
